# Laboratory results as given in ChEMBL document CHEMBL1201862, “PubChem BioAssay data set” (2004).
# Activity calls are given as the source filed them.
# Tests used:
# [1] = HGIII-sPLA2 enzyme inhibition potency – biochemical, QFRET, IC50, dose response (AID 743457);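 note: green fluorescence rise as the enzyme cleaves BODIPY PC-A2 in liposomes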
# [2] = molecular target: T1, Short transient receptor potential channel 4 (Mus musculus, UniProt Q9QUQ5); experiment: calcium entry via TRPC4 opening agents – cell-based, HEK293 TRPC4/mu-opioid, Fluo-4 calcium, dose response (AID 434937); type: functional
# T1 sequence (Q9QUQ5 whole entry): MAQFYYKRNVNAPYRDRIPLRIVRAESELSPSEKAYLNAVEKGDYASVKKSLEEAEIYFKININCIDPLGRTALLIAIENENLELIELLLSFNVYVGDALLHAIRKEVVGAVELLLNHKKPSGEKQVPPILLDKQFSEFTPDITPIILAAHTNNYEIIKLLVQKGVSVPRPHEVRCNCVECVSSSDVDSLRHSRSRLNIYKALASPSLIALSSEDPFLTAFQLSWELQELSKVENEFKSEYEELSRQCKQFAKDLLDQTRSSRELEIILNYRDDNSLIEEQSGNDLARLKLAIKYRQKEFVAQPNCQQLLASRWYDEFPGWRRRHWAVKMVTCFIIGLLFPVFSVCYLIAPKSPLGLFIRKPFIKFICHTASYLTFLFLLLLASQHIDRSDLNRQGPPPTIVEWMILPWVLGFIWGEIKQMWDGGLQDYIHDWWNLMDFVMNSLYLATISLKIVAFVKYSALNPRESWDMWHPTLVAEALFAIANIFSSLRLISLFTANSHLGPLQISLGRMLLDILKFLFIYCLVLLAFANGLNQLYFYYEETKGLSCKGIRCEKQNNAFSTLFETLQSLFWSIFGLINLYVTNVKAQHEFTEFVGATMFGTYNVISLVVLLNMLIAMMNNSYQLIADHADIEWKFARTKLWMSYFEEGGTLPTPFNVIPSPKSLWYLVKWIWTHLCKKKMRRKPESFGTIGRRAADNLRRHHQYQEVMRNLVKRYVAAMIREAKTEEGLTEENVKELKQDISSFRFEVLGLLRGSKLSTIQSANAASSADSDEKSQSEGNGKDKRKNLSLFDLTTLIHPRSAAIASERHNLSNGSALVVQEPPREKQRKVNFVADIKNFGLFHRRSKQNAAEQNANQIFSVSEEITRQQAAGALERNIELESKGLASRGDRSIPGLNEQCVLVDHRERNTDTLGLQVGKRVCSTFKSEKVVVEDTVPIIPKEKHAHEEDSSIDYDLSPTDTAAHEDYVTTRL
# Streptococcus = experiment: GAS UMAA2166 growth inhibition – luminescence, BacTiterGlo, counter-screen for streptokinase expression inhibitor project, dose response (AID 1915); type: functional, organism-based;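 note: potency for reduction of bacterial viability or growth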
# [3] = system: Streptococcus sp. 'group A'; experiment: Streptococcus pyogenes SK(-)GAS viability under kanamycin – luminescence, BacTiterGlo, confirmation, counter-screen for streptokinase expression inhibitor project, dose response (AID 1900); type: functional, organism-based
# [4] = molecular target: T2, Scavenger receptor class B member 1 (Mus musculus, UniProt Q61009); experiment: blockers of DiI-HDL lipid transfer via SR-BI – cell-based, ldlA[mSR-BI] CHO, DiI fluorescence, dry powder, set 10, dose response (AID 624029); type: functional
# T2 sequence (Q61009 whole entry): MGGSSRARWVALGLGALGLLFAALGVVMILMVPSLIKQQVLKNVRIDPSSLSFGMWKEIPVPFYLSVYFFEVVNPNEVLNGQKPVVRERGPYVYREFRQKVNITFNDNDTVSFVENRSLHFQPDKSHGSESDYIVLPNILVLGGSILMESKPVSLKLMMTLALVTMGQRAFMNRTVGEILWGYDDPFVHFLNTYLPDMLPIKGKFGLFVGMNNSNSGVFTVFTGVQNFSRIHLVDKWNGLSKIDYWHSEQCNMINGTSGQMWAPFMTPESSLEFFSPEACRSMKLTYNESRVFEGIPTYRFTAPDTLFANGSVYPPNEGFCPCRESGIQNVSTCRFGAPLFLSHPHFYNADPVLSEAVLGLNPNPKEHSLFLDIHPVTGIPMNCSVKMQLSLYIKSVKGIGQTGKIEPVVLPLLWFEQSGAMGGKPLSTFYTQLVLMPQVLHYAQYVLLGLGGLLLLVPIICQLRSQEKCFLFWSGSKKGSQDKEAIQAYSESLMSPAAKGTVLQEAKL
# [5] = cell viability loss, ATP luminescence – CellTiter-Glo, 24 h, powder samples, set 7, cytotoxicity control for SR-BI HDL uptake inhibitor project, dose response (AID 624026); type: functional, cell-based
# [6] = molecular target: T2, Scavenger receptor class B member 1; experiment: mouse SR-BI DiI-HDL transfer blockers – ldlA[mSR-BI] CHO cells, fluorescence plate reader, dry powder, set 9, dose response (AID 623880); type: functional, cell-based
# A549 = experiment: viability loss in A549 cells – cell-based, plate reader, cherry-pick samples, cytotoxicity control, dose response (AID 687028); type: functional; conditions: Homo sapiens
# HeLa = experiment: viability loss in HeLa cells – cell-based, ATP luminescence, cherry-pick samples, cytotoxicity control, dose response (AID 687004); type: functional; conditions: Homo sapiens
# [7] = HeLa cell viability loss – 24 h, dry powder, set 2, cytotoxicity control, dose response (AID 651774); type: functional, cell-based
smiles,measurement,setting,value
Cc1onc(-c2ccccc2)c1C(=O)NNC(=S)NC(=O)c1ccc2c(c1)OCO2,IC50,[1],56.6 µM (inactive)
same,EC50,[2],4.22 µM (active)
same,EC50,Streptococcus,4.64 µM (active)
same,EC50,[3],0.978 µM (active)
CC.CCCCCCC1CCC/C1=N\NC(N)=S (stereo not given),AC50,[4],0.005 µM (active)
same,AC50,[5],2.08 µM (active)
same,AC50,[6],0.00737 µM (active)
COc1ccc(S(=O)(=O)Nc2ccc3c(c2)C(=O)N([C@@H](C)CO)C[C@H](C)[C@H](CN(C)C(=O)Nc2ccc(C(F)(F)F)cc2)OCCCC[C@H](C)O3)cc1,AC50,A549,24.9 µM (active)
COc1ccc(C(=O)NC(=S)Nc2ccccc2N2CCOCC2)cc1[N+](=O)[O-],AC50,HeLa,> 52 µM (inactive)
CCn1nnnc1NC(=O)c1ccc(N2CCCC2)cc1,AC50,[7],19.7 µM (active)
